The results in this text go back to US9982017B2, “Synthetic apelin mimetics for the treatment of heart failure” (priority 2012, dated 2018).

pEC50: −log10 of the molar value. *1 amine or outer side, *2 acyl side, *3 side chain or, on linkers, in order; H or OH if unused. Where a SMILES comes first, the peptide text is derived from it. Bridges are numbered along the chain shown (N, C = ends). [ ]: non-standard residue; d: D form. The star is where a group is joined. Palmitoyl = CCCCCCCCCCCCCCCC(=O)*; Cha = N[C@@H](CC1CCCCC1)C(=O)O; pGlu = O=C1CC[C@@H](C(=O)O)N1; CH2COCH2 = O=C(C[*:1])C[*:2]; NHPhenethyl = c1ccc(CCN*)cc1; Nle = CCCC[C@H](N)C(=O)O; AEEA = NCCOCCOCC(=O)O; Inp = O=C(O)C1CCNCC1

The nature of one data set: in vitro. Conditions: rat, not told.
Data set [1] is described as follows: Plasma Stability Assay (LC-MS). The class given is in vitro ADME. Conditions: male, Sprague-Dawley, heparinized rat plasma, 37° C., Table 3, read-out: Plasma stability t½. How it is done: • Working solution: 1 mg/mL test article is prepared in Milli-Q water • Extraction solution: Methanol:Acetonitrile:Water (1:1:1) with 0.1% Formic Acid and 400 ng/mL Glyburide. • Plasma: Male Sprague-Dawley rat plasma (with sodium heparin), purchased from Bioreclamation LLC (Liverpool, N.Y.). • Whole blood: Male Sprague Dawley whole blood (with sodium heparin), purchased from Bioreclamation LLC (Liverpool, N.Y.) • Lung homogenate: Male rat Sprague Dawley lung was purchased from Bioreclamation LLC (Liverpool, N.Y.). The lung was homogenized using polytron homogenizer after addition of 5× volume of 1×PBS. The homogenate was centrifuged at 9000 rpm for 10 min at 4° C. The supernatant was centrifuged again at 3000 rpm for 30 min to make a clear supernatant. Protein concentration was determined using a commercial kit (Pierce, Thermo Scientific). Sample Preparation Procedure:
Test article was prepared in one of the following biological matrices: heparinized rat plasma, heparinized rat whole blood or lung homogenate. The plasma and whole blood sample was prepared at 5000 ng/mL by adding 5 uL of 1 mg/mL Working solution to 995 uL of rat plasma or whole blood. Lung homogenate samples were prepared by diluting lung homogenate to 1 mg/ml protein concentration with phosphate buffered saline (PBS), followed by addition of 5 uL Working solution to 995 uL diluted lung homogenate. The samples were incubated at 37° C. with gentle shaking (65˜75 rpm) in a water bath incubator. At times 0 min, 5 min, 15 min, 30 min, 60 min, 120 and 240 min, 25 uL aliquots of incubation samples were transferred to 96-well plate and immediately protein precipitated using 150 uL of Extraction solution. After completion of incubation experiment, the sample plate was centrifuged at 4000 rpm at 4° C. for 10 minutes. Afterwards, a pipetting device (Tecan Temo) was used to tranfer the supernatants to another plate and add 50 uL of water to all samples. The plate was vortexed prior to LC-MS analysis. • LC-MS Analysis of Stability Samples • HPLC: Agilent 1290 HPLC with autosampler • Column: MAC-MOD ACE C18, 3 μm, 30 mm×2.1 mm i.d. • Mobile phase A: 0.1% Formic acid in acetonitrile • Mobile phase B: 0.1% Formic acid in water Gradient Program: […]

In another data set the target is T1, hAPJ (Homo sapiens, UniProt P35414).
T1 sequence (P35414 1-380): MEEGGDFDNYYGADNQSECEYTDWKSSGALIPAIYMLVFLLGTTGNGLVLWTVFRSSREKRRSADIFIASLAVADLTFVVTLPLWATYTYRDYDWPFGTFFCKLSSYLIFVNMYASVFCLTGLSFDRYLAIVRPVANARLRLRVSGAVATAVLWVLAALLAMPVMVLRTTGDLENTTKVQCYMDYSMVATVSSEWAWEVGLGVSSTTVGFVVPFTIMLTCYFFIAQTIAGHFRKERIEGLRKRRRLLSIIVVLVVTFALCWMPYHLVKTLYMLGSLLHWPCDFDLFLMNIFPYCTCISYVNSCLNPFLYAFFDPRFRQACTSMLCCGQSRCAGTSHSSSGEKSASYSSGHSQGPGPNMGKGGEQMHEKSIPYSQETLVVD
Nature of the data set: hAPJ Calcium Flux Assay. It is filed as cell-based. The note with it: Chem-5 APJ stable cells, FLIPR Calcium 4 dye; read-out: hAPJ Ca^2+ Flux EC50. (Calcium assays in cells follow changes in intracellular calcium, usually with a dye or a luminescent sensor.)

A short description of data set [2]: Surrogate Activity-Based Plasma Stability Assay (calcium flux EC50 after incubation with 5% rat plasma). Conditions: not told.
[3] abbreviates: Surrogate Activity based Plasma stability t½.
Setting [4] is: Surrogate activity-based Plasma stability t½.

Method for hAPJ: Chem-5 APJ stable cells (Millipore # HTS068C) were plated in 384-well format with 10,000 cells/well in 25 ul growth media, then grown 24 hours in a 37° C. tissue culture incubator. One hour before the assay, 25 ul/well FLIPR Calcium 4 dye (Molecular Devices R8142) with 2.5 mM probenecid was added, and cells were incubated one hour in a 37° C. tissue culture incubator. Peptides were solubilized in HBSS, HEPES & 0.1% BSA buffer, and serially-diluted 10-fold, from 50 uM to 5 pM, in triplicate. FLIPR Tetra was used to add peptide to the cells with dye (1:5, for final peptide concentrations ranging from 10 uM to 1 pM). FLIPR dye inside the cells emitted fluorescence after binding to calcium, while fluorescence from outside the cells was masked. Fluorescence was measured using 470-495 excitation and 515-575 emission wavelengths on the FLIPR Tetra. Readings were done for 3 minutes total, beginning 10 seconds before the peptide addition. Maximum-minimum values were calculated and plotted for each peptide concentration, and Graph Pad prism software was used to calculate EC50 values at the curve inflection points, for calcium flux stimulation by peptides.

Turning to `CCCC[C@@H]1NC(=O)[C@@H]2CCCN2C(=O)CNC(=O)[C@H](CCCCN)NC(=O)[C@H](Cc2cnc[nH]2)NC(=O)[C@@H](NC(=O)[C@H](CC(C)C)NC(=O)[C@H](CCCNC(=N)N)NC(=O)[C@@H]2CCCN2C(=O)[C@H](CCCNC(=N)N)NC(=O)[C@@H]2CCC(=O)N2)CSSC[C@@H](C(=O)N[C@@H](Cc2ccccc2)C(=O)O)NC1=O` [Example 8, (S)-2-((3S,6R,11R,14S,17S,25aS)-14-((1H-imidazol-5-yl)methyl)-17-(4-aminobutyl)-3-butyl-11-((S)-2-((S)-5-guanidino-2-((S)-1-((S)-5-guanidino-2-((S)-5-oxopyrrolidine-2-carboxamido)pentanoyl)pyrrolidine-2-carboxamido)pentanamido)-4-methylpentanamido)-1,4,12,15,18,21-hexaoxodocosahydro-1H-pyrrolo[2,1-j][1,2,5,8,11,14,17,20]dithiahexaazacyclotricosine-6-carboxamido)-3-phenylpropanoic acid] ([pGlu]RPRLCHKGP[Nle]CF-OH; disulfide 6-12), the half-life in “in vitro” (setting [3]) and in “in vitro” (setting [4]) was 6.78 h each time. For the same compound, in data set [1], the half-life at 5000 ng/mL worked out at 2.72 h.

Regarding `CCCC[C@@H]1NC(=O)[C@@H]2CCCN2C(=O)CNC(=O)[C@H](CCCCN)NC(=O)[C@H](Cc2c[nH]cn2)NC(=O)[C@@H](NC(=O)[C@H](CC(C)C)NC(=O)[C@H](CCCNC(=N)N)NC(=O)[C@@H]2CCCN2C(=O)[C@H](CCCNC(=N)N)NC(=O)[C@@H]2CCC(=O)N2)CSSC[C@@H](C(=O)NCCc2ccccc2)NC1=O` [Example 12, pE-R-P-R-L-C-H-K-G-P-Nle-C-Phenethylamine] ([pGlu]RPRLCHKGP[Nle]C-NHPhenethyl; disulfide 6-12), the results for the half-life in the data set “in vitro” (setting [3]) and in “in vitro” (setting [4]) were 1.6 h and 1.56 h, respectively. Besides, in data set [1], the half-life at 5000 ng/mL is 0.898 h.

As for `CCCC[C@@H]1NC(=O)[C@@H]2CCCN2C(=O)CNC(=O)[C@H](CCCCN)NC(=O)[C@H](Cc2c[nH]cn2)NC(=O)[C@@H](NC(=O)[C@H](CC(C)C)NC(=O)[C@H](CCCNC(=N)N)NC(=O)[C@@H]2CCCN2C(=O)[C@H](CCCNC(=N)N)NC(=O)[C@@H]2CCC(=O)N2)CSSC[C@@H](C(=O)N[C@H](Cc2ccccc2)C(=O)O)NC1=O` [Example 13, pE-R-P-R-L-C-H-K-G-P-Nle-C-f-OH] ([pGlu]RPRLCHKGP[Nle]C[dF]-OH; disulfide 6-12), the half-life in “in vitro” (setting [3]) and in the data set “in vitro” (setting [4]) was 4.73 h each time. In addition, the half-life at 5000 ng/mL in data set [1] is 3.05 h.

`N=C(N)NCCC[C@H](NC(=O)[C@@H]1CCCN1C(=O)[C@H](CCCNC(=N)N)NC(=O)[C@@H]1CCC(=O)N1)C(=O)N[C@@H](CC1CCCCC1)C(=O)N[C@H]1CSSC[C@@H](C(=O)N[C@@H](Cc2ccccc2)C(=O)O)NC(=O)[C@H](CC2CCCCC2)NC(=O)[C@@H]2CCCN2C(=O)CNC(=O)[C@H](CCCCN)NC(=O)[C@H](Cc2c[nH]cn2)NC1=O` [Example 14, pE-R-P-R-Cha-C-H-K-G-P-Cha-C-F-OH] ([pGlu]RPR[Cha]CHKGP[Cha]CF-OH; disulfide 6-12): the half-life in “in vitro” (setting [3]) and in “in vitro” (setting [4]) was 1.42 h in each case. In addition, in data set [1], the half-life at 5000 ng/mL came out at 1.05 h.

On to `CCCC[C@@H]1NC(=O)[C@@H]2CCCN2C(=O)CNC(=O)[C@H](CCCCN)NC(=O)[C@H](Cc2c[nH]cn2)NC(=O)[C@@H](NC(=O)[C@H](CC(C)C)NC(=O)[C@H](CCCNC(=N)N)NC(=O)[C@@H]2CCCN2C(=O)[C@@H](N)CCCNC(=N)N)CSSC[C@@H](C(=O)N[C@@H](Cc2ccccc2)C(=O)O)NC1=O` [Example 16, H-R-P-R-L-C-H-K-G-P-Nle-C-F-OH] (H-RPRLCHKGP[Nle]CF-OH; disulfide 5-11), for which the half-life in the data set “in vitro” (setting [3]) and in “in vitro” (setting [4]) was 0.223 h each time. Moreover, in data set [1], the half-life at 5000 ng/mL was 0.17 h.

Take `CCCC[C@@H]1NC(=O)[C@@H]2CCCN2C(=O)CNC(=O)[C@H](CCCCN)NC(=O)[C@H](Cc2c[nH]cn2)NC(=O)[C@@H](NC(=O)[C@H](CC(C)C)NC(=O)[C@H](CCCNC(=N)N)NC(=O)[C@@H]2CCCN2C(=O)[C@H](CCCNC(=N)N)NC(=O)[C@@H](N)CCCNC(=N)N)CSSC[C@@H](C(=O)N[C@@H](Cc2ccccc2)C(=O)O)NC1=O` [Example 17, H-R-R-P-R-L-C-H-K-G-P-Nle-C-F-OH] (H-RRPRLCHKGP[Nle]CF-OH; disulfide 6-12): the half-life in the data set “in vitro” (setting [3]) and in “in vitro” (setting [4]) was 0.235 h each time. The half-life at 5000 ng/mL in data set [1] was determined as 0.0383 h.

As to `CCCC[C@@H]1NC(=O)[C@@H]2CCCN2C(=O)CNC(=O)[C@H](CCCCN)NC(=O)[C@H](Cc2c[nH]cn2)NC(=O)[C@@H](NC(=O)[C@H](CC(C)C)NC(=O)[C@H](CCCNC(=N)N)NC(=O)[C@@H]2CCCN2C(=O)[C@H](CCCNC(=N)N)NC(=O)C2CCNCC2)CSSC[C@@H](C(=O)N[C@@H](Cc2ccccc2)C(=O)O)NC1=O` [Example 18, H-Isn-R-P-R-L-C-H-K-G-P-Nle-C-F-OH] (H-[Inp]RPRLCHKGP[Nle]CF-OH; disulfide 6-12), the half-life in the data set “in vitro” (setting [3]) and in “in vitro” (setting [4]) was 4.13 h each time. In data set [1], the half-life at 5000 ng/mL is 3.67 h.

In “in vitro” (setting [4]), `CCCCCCCCCCCCCCCC(=O)NCCOCCOCC(=O)N[C@@H](CCC(N)=O)C(=O)N[C@@H](CCCNC(=N)N)C(=O)N1CCC[C@H]1C(=O)N[C@@H](CCCNC(=N)N)C(=O)N[C@@H](CC(C)C)C(=O)N[C@H]1CSSC[C@@H](C(=O)N[C@@H](Cc2ccccc2)C(=O)O)NC(=O)[C@H](CCCC)NC(=O)[C@@H]2CCCN2C(=O)CNC(=O)[C@H](CCCCN)NC(=O)[C@H](Cc2c[nH]cn2)NC1=O` [Example 24, Palmitoyl-O2Oc-Q-R-P-R-L-C-H-K-G-P-Nle-C-F-OH] ({Palmitoyl-AEEA}-QRPRLCHKGP[Nle]CF-OH; disulfide 6-12) showed a half-life of 5.06 h. The pEC50 at hAPJ was 7.49.

In the case of `CCCC[C@@H]1NC(=O)[C@@H]2CCCN2C(=O)CNC(=O)[C@H](CCCCN)NC(=O)[C@@H]2CSSC[C@H](NC(=O)[C@@H]3CCCN3C(=O)[C@H](CCCNC(=N)N)NC(=O)[C@@H]3CCC(=O)N3)C(=O)N[C@@H](CC(C)C)C(=O)N[C@@H](CSSC[C@@H](C(=O)N[C@@H](Cc3ccccc3)C(=O)O)NC1=O)C(=O)N2` [Example 28, pE-R-P-C-L-C-C-K-G-P-Nle-C-F-OH] ([pGlu]RPCLCCKGP[Nle]CF-OH; disulfide 4-7, 6-12), the half-life in data set [2] worked out at 7.34 h.

Turning to `CCCC[C@@H]1NC(=O)[C@@H]2CCCN2C(=O)CNC(=O)[C@H](CCCCN)NC(=O)[C@@H]2CSSC[C@H](NC(=O)[C@H](CCCNC(=N)N)NC(=O)[C@@H]3CCC(=O)N3)C(=O)N[C@@H](CCCNC(=N)N)C(=O)N[C@@H](CC(C)C)C(=O)N[C@@H](CSSC[C@@H](C(=O)N[C@@H](Cc3ccccc3)C(=O)O)NC1=O)C(=O)N2` [Example 29, pE-R-C-R-L-C-C-K-G-P-Nle-C-F-OH] ([pGlu]RCRLCCKGP[Nle]CF-OH; disulfide 3-7, 6-12), in data set [2], the half-life worked out at 3.61 h.

Turning to `CCCC[C@@H]1NC(=O)[C@@H]2CCCN2C(=O)CNC(=O)[C@H](CCCCN)NC(=O)[C@H](Cc2cnc[nH]2)NC(=O)[C@@H](NC(=O)[C@H](CC(C)C)NC(=O)[C@H](CCCNC(=N)N)NC(=O)[C@@H]2CCCN2C(=O)[C@H](CCCNC(=N)N)NC(=O)[C@@H]2CCC(=O)N2)CSCC(=O)CSC[C@@H](C(=O)N[C@@H](Cc2ccccc2)C(=O)O)NC1=O` [Example 64, (S)-2-((3S,6R,14R,17S,20S,28aS)-17-((1H-imidazol-5-yl)methyl)-20-(4-aminobutyl)-3-butyl-14-((S)-2-((S)-5-guanidino-2-((S)-1-((S)-5-guanidino-2-((S)-5-oxopyrrolidine-2-carboxamido)pentanoyl)pyrrolidine-2-carboxamido)pentanamido)-4-methylpentanamido)-1,4,10,15,18,21,24-heptaoxohexacosahydropyrrolo[2,1-i][1,23,4,7,10,13,16,19]dithiahexaazacyclohexacosine-6-carboxamido)-3-phenylpropanoic acid] ([pGlu]RPRLCHKGP[Nle]CF-OH; linker 6-12 via CH2COCH2), the half-life in data set [2] worked out at 7.58 h.

What is called pEC50 is the negative decadic logarithm of the EC50, by convention in mol/L.
